Assays:
surinam grass = experiment: Test B pre/postemergence surinam grass; assay type: in vivo, Brachiaria decumbens
In short: (§1)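 Response is a visual 0-to-10 score relative to untreated plants, where 0 means no effect and 10 means complete control, taken twelve to sixteen days after application. Treatments went onto soil at planting and onto foliage of 1- to 4-leaf plants, using a surfactant-containing non-phytotoxic solvent.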

bedstraw = experiment: Test B pre/postemergence bedstraw; assay type: in vivo, Galium aparine
In short: as §1

wild oat = experiment: Test B pre/postemergence wild oat; assay type: in vivo, Avena fatua
In short: as §1

corn = experiment: Test B pre/postemergence corn; assay type: in vivo, Zea mays
In short: as §1

velvetleaf = experiment: Test B pre/postemergence velvetleaf; assay type: in vivo, Abutilon theophrasti
In short: as §1

duck salad = experiment: Test B flood test duck salad; assay type: in vivo, Heteranthera limosa
In short: (§2)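 Plants were grown to the 2-leaf stage before treatment with test chemical, then held in a greenhouse for twelve to sixteen days. Injury was visually rated against untreated controls on a 0–10 scale, where 0 is no effect and 10 is complete control.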

rice = experiment: Test B flood test rice; assay type: in vivo, Oryza sativa
In short: as §2

sugar beet = experiment: Test B pre/postemergence sugar beet; assay type: in vivo, Beta vulgaris
In short: as §1

smallflower flatsedge = experiment: Test B flood test smallflower flatsedge; assay type: in vivo, Cyperus difformis
In short: as §2

cocklebur = experiment: Test B pre/postemergence cocklebur; assay type: in vivo, Xanthium strumarium
In short: as §1

purple nutsedge = experiment: Test B pre/postemergence purple nutsedge; assay type: in vivo, Cyperus rotundus
In short: as §1

giant foxtail = experiment: Test B pre/postemergence giant foxtail; assay type: in vivo, Setaria faberii
In short: as §1

wheat = experiment: Test B pre/postemergence wheat; assay type: in vivo, Triticum aestivum
In short: as §1

pigweed = experiment: Test B pre/postemergence pigweed; assay type: in vivo, Amaranthus retroflexus
In short: as §1

soybean = experiment: Test B pre/postemergence soybean; assay type: in vivo, Glycine max
In short: as §1

rape = experiment: Test B pre/postemergence rape; assay type: in vivo, Brassica napus
In short: as §1

[1] = Preemergence, Rate 31 g/ha, visual rating, scale 0 to 10 (0 no effect, 10 complete control)
[2] = Preemergence, Rate 62 g/ha, scale of 0 to 10 where 0 is no effect and 10 is complete control
[3] = Preemergence, Rate 250 g/ha, scale of 0 to 10 where 0 is no effect and 10 is complete control
[4] = Rate 31 g/ha, Postemergence, scale 0 to 10
[5] = Rate 62 g/ha, Postemergence, scale 0 to 10 (0 no effect, 10 complete control)
[6] = Rate 125 g/ha, Postemergence, scale of 0 to 10 where 0 is no effect and 10 is complete control
[7] = Rate 125 g/ha, Preemergence, scale of 0 to 10 where 0 is no effect and 10 is complete control
[8] = Rate 250 g/ha, Postemergence, scale of 0 to 10 where 0 is no effect and 10 is complete control
[9] = Rate 31 g/ha, Pre-emergence section (flood test species), scale 0 to 10
[10] = Rate 62 g/ha, headed Pre-emergence (flood test species), scale 0 to 10 (0 no effect, 10 complete control)
[11] = Rate 125 g/ha, Pre-emergence, flood test species, scale 0 to 10 where 0 is no effect and 10 is complete control
[12] = Rate 250 g/ha, Pre-emergence, flood-test species, scale 0 to 10, 0 is no effect, 10 is complete control

With `CC(C)=CCn1c(=O)on(C(=O)N(c2ccc(F)cc2)C(C)C)c1=O` [Compound 288] the “B. signalgrass plant response rating” value (surinam grass; [1]) was 0, the “B. signalgrass plant response rating” value (surinam grass; [2]) was 0 and the “B. signalgrass plant response rating” value (surinam grass; [3]) was 6. For the same compound, the “B. signalgrass plant response rating” value (surinam grass; [4]) was 0, the “B. signalgrass plant response rating” value (surinam grass; [5]) was 0 and the “B. signalgrass plant response rating” value (surinam grass; [6]) was 0. For the same compound, the “B. signalgrass plant response rating” value (surinam grass; [7]) was 4, the “Plant response rating, B. signalgrass” value (surinam grass; [8]) was 0 and the “Bedstraw plant response rating” value (bedstraw; [1]) was 0. For the same compound, the “Bedstraw plant response rating” value (bedstraw; [2]) was 0, the “Bedstraw plant response rating” value (bedstraw; [3]) was 10 and the “Bedstraw plant response rating” value (bedstraw; [4]) was 0. For the same compound, the “Bedstraw plant response rating” value (bedstraw; [5]) was 0, the “Bedstraw plant response rating” value (bedstraw; [6]) was 0 and the “Bedstraw plant response rating” value (bedstraw; [7]) was 2. The “Plant response rating, Bedstraw” value (bedstraw; [8]) was 0, the “Wild oats plant response rating” value (wild oat; [1]) was 0 and the “Wild oats plant response rating” value (wild oat; [2]) was 0. The “Wild oats plant response rating” value (wild oat; [3]) was 5, the “Wild oats plant response rating” value (wild oat; [5]) was 0 and the “Wild oats plant response rating” value (wild oat; [6]) was 0. The “Plant response rating, Wild oats” value (wild oat; [8]) was 0, the “Corn plant response rating” value (corn; [1]) was 0 and the “Corn plant response rating” value (corn; [2]) was 0. The “Corn plant response rating” value (corn; [3]) was 0, the “Corn plant response rating” value (corn; [4]) was 0 and the “Corn plant response rating” value (corn; [5]) was 0. The “Corn plant response rating” value (corn; [6]) was 0, the “Corn plant response rating” value (corn; [7]) was 0 and the “Plant response rating, Corn” value (corn; [8]) was 0. The “Velvetleaf plant response rating” value (velvetleaf; [1]) was 0, the “Velvetleaf plant response rating” value (velvetleaf; [2]) was 0 and the “Velvetleaf plant response rating” value (velvetleaf; [3]) was 3. The “Velvetleaf plant response rating” value (velvetleaf; [5]) was 0, the “Velvetleaf plant response rating” value (velvetleaf; [6]) was 0 and the “Velvetleaf plant response rating” value (velvetleaf; [7]) was 0. For the same compound, the “Plant response rating, Velvetleaf” value (velvetleaf; [8]) was 1, the “Ducksalad plant response rating” value (duck salad; [9]) was 0 and the “Ducksalad plant response rating” value (duck salad; [10]) was 0. For the same compound, the “Ducksalad plant response rating” value (duck salad; [11]) was 0, the “Ducksalad plant response rating” value (duck salad; [12]) was 0 and the “Rice plant response rating” value (rice; [9]) was 0. For the same compound, the “Rice plant response rating” value (rice; [10]) was 0, the “Rice plant response rating” value (rice; [11]) was 0 and the “Rice plant response rating” value (rice; [12]) was 0. The “Sugarbeets plant response rating” value (sugar beet; [1]) was 0, the “Sugarbeets plant response rating” value (sugar beet; [2]) was 0 and the “Sugarbeets plant response rating” value (sugar beet; [3]) was 0. The “Sugarbeets plant response rating” value (sugar beet; [5]) was 0, the “Sugarbeets plant response rating” value (sugar beet; [6]) was 0 and the “Sugarbeets plant response rating” value (sugar beet; [7]) was 0. The “Plant response rating, Sugarbeets” value (sugar beet; [8]) was 0, the “S. Flatsedge plant response rating” value (smallflower flatsedge; [9]) was 0 and the “S. Flatsedge plant response rating” value (smallflower flatsedge; [10]) was 0. For the same compound, the “S. Flatsedge plant response rating” value (smallflower flatsedge; [11]) was 0, the “S. Flatsedge plant response rating” value (smallflower flatsedge; [12]) was 0 and the “Cocklebur plant response rating” value (cocklebur; [1]) was 0. The “Cocklebur plant response rating” value (cocklebur; [2]) was 0, the “Cocklebur plant response rating” value (cocklebur; [3]) was 0 and the “Cocklebur plant response rating” value (cocklebur; [4]) was 0. The “Cocklebur plant response rating” value (cocklebur; [5]) was 0, the “Cocklebur plant response rating” value (cocklebur; [6]) was 0 and the “Cocklebur plant response rating” value (cocklebur; [7]) was 0. For the same compound, the “Plant response rating, Cocklebur” value (cocklebur; [8]) was 1, the “Nutsedge plant response rating” value (purple nutsedge; [1]) was 0 and the “Nutsedge plant response rating” value (purple nutsedge; [2]) was 0. For the same compound, the “Nutsedge plant response rating” value (purple nutsedge; [3]) was 0, the “Nutsedge plant response rating” value (purple nutsedge; [4]) was 0 and the “Nutsedge plant response rating” value (purple nutsedge; [5]) was 0. The “Nutsedge plant response rating” value (purple nutsedge; [6]) was 0, the “Nutsedge plant response rating” value (purple nutsedge; [7]) was 0 and the “Plant response rating, Nutsedge” value (purple nutsedge; [8]) was 0. For the same compound, the “Giant foxtail plant response rating” value (giant foxtail; [1]) was 0, the “Giant foxtail plant response rating” value (giant foxtail; [2]) was 5 and the “Giant foxtail plant response rating” value (giant foxtail; [3]) was 10. For the same compound, the “Giant foxtail plant response rating” value (giant foxtail; [4]) was 0, the “Giant foxtail plant response rating” value (giant foxtail; [5]) was 0 and the “Giant foxtail plant response rating” value (giant foxtail; [6]) was 0. For the same compound, the “Giant foxtail plant response rating” value (giant foxtail; [7]) was 9, the “Plant response rating, Giant foxtail” value (giant foxtail; [8]) was 0 and the “Wheat plant response rating” value (wheat; [1]) was 0. The “Wheat plant response rating” value (wheat; [2]) was 0, the “Wheat plant response rating” value (wheat; [3]) was 2 and the “Wheat plant response rating” value (wheat; [5]) was 0. The “Wheat plant response rating” value (wheat; [6]) was 0, the “Wheat plant response rating” value (wheat; [7]) was 0 and the “Plant response rating, Wheat” value (wheat; [8]) was 0. The “Redroot pigweed plant response rating” value (pigweed; [1]) was 0, the “Redroot pigweed plant response rating” value (pigweed; [2]) was 0 and the “Redroot pigweed plant response rating” value (pigweed; [3]) was 0. The “Redroot pigweed plant response rating” value (pigweed; [4]) was 0, the “Redroot pigweed plant response rating” value (pigweed; [5]) was 0 and the “Redroot pigweed plant response rating” value (pigweed; [6]) was 0. For the same compound, the “Redroot pigweed plant response rating” value (pigweed; [7]) was 0, the “Plant response rating, Redroot pigweed” value (pigweed; [8]) was 0 and the “Soybean plant response rating” value (soybean; [1]) was 0. The “Soybean plant response rating” value (soybean; [2]) was 0, the “Soybean plant response rating” value (soybean; [3]) was 0 and the “Soybean plant response rating” value (soybean; [5]) was 0. For the same compound, the “Soybean plant response rating” value (soybean; [6]) was 2, the “Soybean plant response rating” value (soybean; [7]) was 0 and the “Plant response rating, Soybean” value (soybean; [8]) was 2. For the same compound, the “Rape plant response rating” value (rape; [1]) was 0, the “Rape plant response rating” value (rape; [2]) was 0 and the “Rape plant response rating” value (rape; [3]) was 0. For the same compound, the “Rape plant response rating” value (rape; [4]) was 0, the “Rape plant response rating” value (rape; [5]) was 1 and the “Rape plant response rating” value (rape; [6]) was 2. For the same compound, the “Rape plant response rating” value (rape; [7]) was 0 and the “Plant response rating, Rape” value (rape; [8]) was 3.

— patent US6737383B1, “Herbicidal oxadiazolidines” (priority 1999, dated 2004)
